Assay results from US4975434A, “Antiviral and anticancer cyclopentenyl cytosine” (priority 1989, dated 1990).
Converted amounts (≈) assume the structure as drawn. “And” between values parts separate entries of the source, which are not always exact repeats. Equal values may be shown once. “Also recorded” adds a separate entry of the source.

Experiments:
[1] = test system: CTP levels; assay: CTP levels in normal and tumor tissue of L1210 bearing mice; assay type: in vivo, mouse; conditions: normal vs tumor tissue of L1210 bearing mice
[2] = test system: Vaccinia, strain Lederle CA; assay: microbe, parasite or virus in culture; assay type: cell-based
[3] = test system: A549 Lung; assay: Human tumor xenograft in athymic mice, A549 lung (subrenal capsule)
[4] = test system: Vesicular Stomatitis virus, strain Indiana; assay type: cell-based
[5] = test system: L1210/ara-C Leukemia; assay: In vivo antitumor test, ara-C resistant L1210 leukemia in mice; conditions: for Number of 60 day survivors per test group / % ILS: Table IV; for Number of 60 day survivors per test group: QD1-9; for % ILS: QD1-9, terminated day 60; for activity against ara-C resistant tumor: result in words
[6] = test system: Cytomegalovirus, strain AD 169; assay: Cytomegalovirus (CMV) Yield Reduction Assay; assay type: cell-based
[7] = test system: vaccinia virus (IHD strain); assay type: in vivo, mouse (CD-I)
[8] = test system: malignant human promyelocytic leukemia cell line, HL-60; assay: Growth inhibition and differentiation of HL-60 cells (nitroblue tetrazolium reduction); assay type: cell-based
[9] = test system: Rift Valley Fever virus; conditions: USAMRIID, Fort Detrick
[10] = test system: MX-1 Mammary; assay: Human tumor xenograft in athymic mice, MX-1 mammary (subrenal capsule); conditions: for % Tumor Inhibition: day 0 to 11; for % tumor weight inhibition: Table IV, QD1-9, day 0 to day 11
[11] = test system: CTP synthesase; assay: Inhibition of CTP synthesis (CTP synthesase); assay type: biochemical; conditions: result in words
[12] = test system: Rhinovirus 1A; assay: Antiviral activity against rhinovirus 1A; assay type: cell-based; conditions: result in words

SMILES: Nc1ccn([C@@H]2C=C(CO)[C@@H](O)[C@H]2O)c(=O)n1 [CPE-C]
- tissue specificity of CTP reduction [1]: some tissuespecificity towards the tumor
- potency relative to ara-A [2]: about 100 times
- IC50 ([2]; Orthopoxvirus vaccinia, Vero, in Chlorocebus sabaeus, read-out: ID50): 0.1 µg/mL (≈ 0.418 µM)
- VR (virus rating) ([2]; Vero cells, strain Lederle CA): 4.6
- antiviral activity ([2]; result in words): very sensitive to CPE-C; also recorded: Potent activity
- growth inhibition [3]: 100%
- Toxicity: weight loss and deaths ([3]; A549 experiments 1 and 2, 1.5 and 2.0 mg/kg/injection, each group of six mice): weight loss and one or two deaths
- % Tumor Inhibition (negative value denotes tumor regression) ([3]; Table III Experiment 1, SRC, IP QD1-9, OD 1.5 mg/kg/injection, day 0 to 11): -59%
- % Tumor Inhibition ([3]; Table III Experiment 2, SRC, IP QD1-9, OD 2.0 mg/kg/injection, day 0 to 11): 92%
- VR (virus rating) ([4]; L929 cells, strain Indiana, two determinations): 2.4 and 3.0
- TI (therapeutic index) ([4]; minimum toxic drug concentration / ID50, L929 cells): 0.6 and 0.4
- antiviral activity ([4]; result in words): Good activity; also recorded: Virus ratings greater than two
- Number of 60 day survivors per test group ([5]; CPE-C 1.0 mg/kg): 6/10
- % ILS ([5]; CPE-C 1.0 mg/kg): > 650%
- Number of 60 day survivors per test group ([5]; CPE-C 1.5 mg/kg): 5/9
- % ILS ([5]; CPE-C 1.5 mg/kg): > 650%
- Number of 60 day survivors per test group ([5]; CPE-C 2.25 mg/kg): 6/10
- % ILS ([5]; CPE-C 2.25 mg/kg): > 650%
- activity against ara-C resistant tumor [5]: producing multiple cures against the resistant tumor; also recorded: collaterally sensitive
- activity against ara-C resistant tumor ([5]; listed as cyclopentenyl cytosine): significant antitumor activity
- log reduction at 0.1 µg/mL ([6]; Human betaherpesvirus 5, 144 h, 0.1 μg/ml, MRC5 cells, read-out: Reduction in Virus Yield): 0.8
- log reduction at 0.32 µg/mL ([6]; Human betaherpesvirus 5, 144 h, 0.32 μg/ml, MRC5 cells, read-out: Reduction in Virus Yield): 1.3
- log reduction at 1 µg/mL ([6]; Human betaherpesvirus 5, 144 h, 1.0 μg/ml, MRC5 cells, read-out: Reduction in Virus Yield): 1.4
- log reduction at 3.2 µg/mL ([6]; Human betaherpesvirus 5, 144 h, 3.2 μg/ml, MRC5 cells, read-out: Reduction in Virus Yield): 1.5
- log reduction at 10 µg/mL ([6]; Human betaherpesvirus 5, 144 h, 10 μg/ml, MRC5 cells, read-out: Reduction in Virus Yield): 1.9
- log reduction at 32 µg/mL ([6]; Human betaherpesvirus 5, 144 h, 32 μg/ml, MRC5 cells, read-out: Reduction in Virus Yield): 2
- log reduction at 100 µg/mL ([6]; Human betaherpesvirus 5, 144 h, 100 μg/ml, MRC5 cells, read-out: Reduction in Virus Yield): 2
- log reduction at 320 µg/mL ([6]; Human betaherpesvirus 5, 144 h, 320 μg/ml, MRC5 cells, read-out: Reduction in Virus Yield): 5.3
- antiviral activity ([6]; result in words): Potent activity; also recorded: Activity was observed for both compounds
- activity in vivo, mouse tail pox model ([7]; 1.5 mg/kg): good protection; also recorded: Excellent activity
- Pox Count (mean value, 20 mice) ([7]; CPE-C 1.5 mg/kg, QD 1-7 subcutaneous, PBS control 45.8): 0.8
- inhibition of cell growth ([8]; continuous exposure for 5 days to 10^-8 to 10^-6 M): progressive inhibition of cell growth
- differentiation ([8]; continuous exposure for 5 days to 10^-8 to 10^-6 M, general statement): differentiation to a non-malignant phenotype
- cell population that reduced nitroblue tetrazolium ([8]; four days after exposure to 10^-7 M): 95%
- antiviral activity [9]: particularly active
- growth inhibition [10]: 100%
- potency relative to 3DU ([10]; MX-1 xenograft): about 100 times
- % Tumor Inhibition ([10]; Table III Experiment 1, SRC, IP QD1-9, OD 1.5 mg/kg/injection): 100%
- % Tumor Inhibition ([10]; Table III Experiment 2, SRC, IP QD1-9, OD 2.25 mg/kg/injection): 95%
- % tumor weight inhibition ([10]; CPE-C 1.5 mg/kg): 94%
- % tumor weight inhibition ([10]; CPE-C 2.25 mg/kg): 100%
- activity ([10]; result in words): complete inhibition of tumor growth
- inhibition of CTP synthesis [11]: powerful inhibitors of CTP synthesis
- antiviral activity [12]: Activity was not seen
